These are literature values, as cited in the CATMoS acute toxicity set (Mansouri et al. 2021).

Several values for one entry are separate records, joined by “and”; a condition that tells them apart may be missing. Equal entries are not always repeated.

The data set in a line: rat acute oral toxicity. Particulars: in vivo. From the text:
[…]The data set underlying the modeling effort for this project was initially compiled by NICEATM and U.S. EPA’s CCTE. Briefly, LD50 data were collected from rat acute oral systemic toxicity tests, including limit tests, ranges/confidence intervals, and discrete LD50 values. The full data set included 21,200 LD50 entries for 15,688 substances. […] Data were reviewed to ensure that LD50 values with obvious errors in the extracted data such as unit conversion errors (e.g., comma and decimal separator misplacements) were either fixed or removed. After this review, 16,209 LD50 values remained. Many of the chemicals represented had multiple LD50 entries, requiring that a single representative value per Chemical Abstracts Service Registry Number (CASRN) identifier be defined to facilitate modeling efforts. Based on ATWG feedback and to define the representative LD50 as a protective value while accounting for the distribution across multiple LD50s, the median of the lowest quartile was computed using only discrete LD50 values (omitting limit test data and range and confidence interval data). A detailed summary of the data compilation is available online on the NICEATM webpage dedicated to the collaborative modeling project (NTP 2020).
[…][…] For categorical designations, limit test and range/confidence interval LD50 data were integrated wherever possible. As such, the number of chemicals with end point values/calls varies across the modeling end points (Table 3) based on whether chemicals had representative LD50 values and/or other data. If a chemical had both, the representative value was used to determine categorical calls rather than limit test data. Some data were useable only for certain end points and categories depending on the thresholds. For example, ranges that spanned multiple hazard categories were considered only for the binary (very toxic/nontoxic) end points and omitted from rendering a determination for hazard category assignment.
[…]The final data set comprising 11,992 chemicals was split into training and evaluation sets […], respectively. This process was performed semirandomly by ordering chemicals based on the five end points (categorical and continuous LD50 values) and partitioning every fourth record into the evaluation set accordingly. This approach was taken to ensure an equivalent distribution of the LD50 values and the different hazard categories between the training and the evaluation sets without supervised sampling of the chemicals based on structures (Figure 1A). The sources of the chemical structures were also kept equivalent between the two sets, with chemical structures obtained from DSSTox, being the highest quality, representing over 75% of each set (Figure 1B).
The term LD50 denotes the dose at which mortality reaches 50%. `Nc1nc2cc(Br)ccc2o1`: the LD50 is 1000 mg/kg.

On to `Oc1ccc(Cl)cc1Cc1ccccc1`, for which the median lethal dose (LD50) is 1700 mg/kg.

Regarding `C=CCCC=O`, the LD50 was 620 mg/kg. With `Cc1ccc(S(=O)(=O)N=C=O)cc1`, the LD50 was 2230 mg/kg.

For `Cc1ccc(Cl)cc1Cl`, the median lethal dose (LD50) was 2400 mg/kg.

For `O=Cc1cccs1`, the LD50 was 915 mg/kg. As to `CCCCCNCCCCC`, the 50% lethal dose (LD50) is 270 mg/kg.

For `N#CN=c1ccccn1Cc1c(Cl)cccc1Cl`, the LD50 is 500 mg/kg. As to `COc1ccc2c3c1OC1C(O)CCC4C(C2)N(C)CCC341` (stereo unspecified), the LD50 was 359 mg/kg. As for `CC(CN)NCCO` (stereo unspecified), the LD50 is 4920 mg/kg. Turning to `CC[C@H]1[C@@H]2C[C@H]3[C@@H]4N(C)c5ccccc5[C@]45C[C@@H](C2[C@H]5O)N3[C@@H]1O` (stereo partly specified), the LD50 was 360 mg/kg. Consider `Nc1c(/N=N/c2ccc([N+](=O)[O-])cc2)c(S(=O)(=O)O)cc2cc(S(=O)(=O)O)c(/N=N/c3ccc(-c4ccc(/N=N/c5ccc(O)cc5)cc4)cc3)c(O)c12`, for which the 50% lethal dose (LD50) was 14700 mg/kg. Regarding `CCOCC(Cl)C(OCC)OCC` (stereo unspecified), the median lethal dose (LD50) is 1320 mg/kg.

Regarding `O=CCCCC(O)C=O` (stereo unspecified), the LD50 is 17000 mg/kg.

Turning to `Cc1cc(C)c(C2=C(OC(=O)C(C)(C)C)c3ccccc3C2=O)c(C)c1`, the LD50 was 8000 mg/kg. On to `CC(C)(C)NCCCCN`, for which the LD50 is 810 mg/kg. As to `CCOC(=O)C(=O)NP(=O)(OC)SC` (stereo unspecified), the 50% lethal dose (LD50) is 501 mg/kg. For the compound `CCc1c(C)[nH]c2c1C(=O)C1CN(C)CCC1C2` (stereo unspecified), the LD50 was 220 mg/kg. In the case of `CC(C)C(=O)OCC(C)(C)C(O)C(C)C` (stereo unspecified), the LD50 is 3200 mg/kg. On to `CC(=O)c1cccc2ccccc12`, for which the LD50 was 1560 mg/kg. As for `CCOCCN(C(=O)CCl)C(=C(C)C)c1ccccc1`, the LD50 is 983 mg/kg.

On to `CCCCCCCCNC(C)C(O)c1ccc(SC(C)C)cc1` (stereo unspecified), for which the LD50 is 1740 mg/kg. Take `Cc1ncc(CNC(=O)N(CCCl)N=O)c(N)n1`: the 50% lethal dose (LD50) was 113 mg/kg. On to `O=c1[nH]sc2ccccc12`, for which the 50% lethal dose (LD50) was 1020 mg/kg. Take `CCCCOC(CBr)c1ccc(C2CCCC2)cc1` (stereo unspecified): the LD50 is 250 mg/kg. As for `CC(C)(c1cc(Cl)c(O)c(Cl)c1)c1cc(Cl)c(O)c(Cl)c1`, the LD50 is 7430 mg/kg. For the compound `CC(CCC(=O)O)C(=O)O` (stereo unspecified), the LD50 is 300 mg/kg. Consider `O=CC(Cl)(Cl)Cl`, for which the LD50 was 480 mg/kg.

Consider `O=C1C=CC(=O)N1c1c(F)c(F)c(F)c(N2C(=O)C=CC2=O)c1F`, for which the LD50 was 2100 mg/kg. Consider `C=CC(=O)OCCN(C)C`, for which the median lethal dose (LD50) was 455 mg/kg.

With `OC[C@H]1O[C@@H]2O[C@H]3[C@H](O)[C@@H](O)[C@@H](O[C@H]4[C@H](O)[C@@H](O)[C@@H](O[C@H]5[C@H](O)[C@@H](O)[C@@H](O[C@H]6[C@H](O)[C@@H](O)[C@@H](O[C@H]7[C@H](O)[C@@H](O)[C@@H](O[C@H]8[C@H](O)[C@@H](O)[C@@H](O[C@H]1[C@H](O)[C@H]2O)O[C@@H]8CO)O[C@@H]7CO)O[C@@H]6CO)O[C@@H]5CO)O[C@@H]4CO)O[C@@H]3CO`, the 50% lethal dose (LD50) is 18800 mg/kg.

Consider `CCN(CC)c1ccc(N=O)c(O)c1`, for which the LD50 was 315 mg/kg.

In the case of `CN1CCN(C(=O)OC2c3nccnc3C(=O)N2c2ccc(Cl)cn2)CC1` (stereo unspecified), the LD50 is 827 mg/kg.

As for `COP(=S)(OC)SC1OCCOC1SP(=S)(OC)OC` (stereo unspecified), the median lethal dose (LD50) was 350 mg/kg. For the compound `CCC12CCC3c4ccc(O)cc4CCC3C1CC(O)C2O` (stereo unspecified), the LD50 was 5010 mg/kg. For the compound `CC1(C)CC2(NC(=O)N(CCCN3CCC(O)CC3)C2=O)c2cc(Cl)ccc2O1` (stereo unspecified), the median lethal dose (LD50) was 858 mg/kg.

For the compound `CCOC(C1=NCCCN1)c1ccccc1` (stereo unspecified), the LD50 was 1540 mg/kg. In the case of `CCN(COC)N=O`, the LD50 was 540 mg/kg. For the compound `CCC(CC)COCCC#N`, the LD50 was 2460 mg/kg. Regarding `CCNC1=Nc2ccc(Cl)cc2C(C)(c2ccccc2)O1` (stereo unspecified), the LD50 is 1500 mg/kg. Turning to `Cc1ccsc1/C=C/C1=NCCCN1C`, the LD50 was 926 mg/kg.

`BrCC=CCBr`: the LD50 is 75 mg/kg. With `Cc1nc2sccn2c1/C=N/NC(=O)CN(C)C`, the median lethal dose (LD50) was 1500 mg/kg. `COc1ccccc1OC`: the LD50 is 890 mg/kg.

In the case of `CN(SSN(C)C(=O)ON=C1CSCCS1)C(=O)ON=C1CSCCS1`, the 50% lethal dose (LD50) is 160 mg/kg. For the compound `Cc1ccc(NC(=O)CF)cc1`, the median lethal dose (LD50) was 7 mg/kg. Turning to `CCOc1ccc([N+](=O)[O-])cc1CNCCCl`, the 50% lethal dose (LD50) is 25 mg/kg. As for `O=C1CCC(N2C(=O)c3ccccc3C2=O)C(=O)N1` (stereo unspecified), the LD50 is 113 mg/kg. As for `Nc1ccc(-c2ccc(N)cc2)cc1`, the LD50 was 309 mg/kg.

`CCCCOC(=O)c1ccccc1C(=O)OCCOCCOC(=O)c1ccccc1C(=O)OCCCC`: the LD50 is 11000 mg/kg. As to `OCC1OC(n2cnc3c(S)ncnc32)C(O)C1O` (stereo unspecified), the LD50 is 900 mg/kg. Consider `O=c1[nH]c2ccccc2n1CCCN1CCN(C(c2ccccc2)c2ccccc2)CC1`, for which the 50% lethal dose (LD50) is 1410 mg/kg. Turning to `Cc1ccc2[nH]c(=S)[nH]c2c1`, the 50% lethal dose (LD50) is 340 mg/kg. Turning to `C=C(OP(=O)(OCC)OCC)c1ccc(Cl)cc1Cl`, the LD50 is 1530 mg/kg.

Turning to `CCCCN(CCCCO)N=O`, the 50% lethal dose (LD50) is 1800 mg/kg. In the case of `FC(F)(F)c1ccc(Cl)c(Cl)c1`, the 50% lethal dose (LD50) is 1150 mg/kg.

As for `S=C(C=Cc1ccc2c(c1)OCO2)N1CCOCC1`, the LD50 is 285 mg/kg. For `C=CCn1c(C)c(N(C)C)c(=O)n(-c2ccccc2)c1=O`, the median lethal dose (LD50) is 2400 mg/kg.

With `CCCC(CCC)C(N)=O`, the LD50 was 890 mg/kg.

As to `Cc1cccc(C#N)c1`, the LD50 is 3000 mg/kg. Take `CS(=O)(=O)c1ccccc1`: the LD50 was 1470 mg/kg.

Turning to `O=c1cc(O)c1=O`, the median lethal dose (LD50) is 41 mg/kg.

Take `CNC(=O)Oc1cc([N+](C)(C)C)ccc1C`: the LD50 was 2.5 mg/kg. With `O=S(=O)(CCCl)COCS(=O)(=O)CCCl`, the median lethal dose (LD50) is 168 mg/kg.

With `COc1ccc(N)c([N+](=O)[O-])c1`, the LD50 was 14100 mg/kg.

Consider `O=C(O)CS(=O)(=O)O`, for which the median lethal dose (LD50) was 3160 mg/kg. For the compound `CC(C)(C)c1cc(Cl)cc(Sc2cc(Cl)cc(C(C)(C)C)c2O)c1O`, the median lethal dose (LD50) was 6100 mg/kg.

As to `CC(=O)c1ccc2c(c1)N(CCCN1CCOCC1)c1ccccc1S2`, the LD50 was 2500 mg/kg. As for `COC(=O)Nc1nc2ccccc2n1C(=O)NCCCCCC#N`, the median lethal dose (LD50) was 2500 mg/kg. As to `CC(C)NC(=S)NC(C)C`, the LD50 was 450 mg/kg. `CC(=O)Nc1ccc2nc(C(F)(F)F)[nH]c2c1`: the median lethal dose (LD50) is 23.8 mg/kg. Regarding `CNc1nc(NC(C)C)nc(OC)n1`, the LD50 was 2400 mg/kg.

Consider `O=C(O)CSc1cccc2cccc(CCl)c12`, for which the median lethal dose (LD50) is 2500 mg/kg. Regarding `ClCCOCCCl`, the LD50 was 75 mg/kg. In the case of `CON(C(=O)c1cc(C)oc1C)C1CCCCC1`, the LD50 is 3780 mg/kg. Regarding `C[N+]1(CCC(C(N)=O)(c2ccccc2)c2ccccc2)CCCCCC1`, the LD50 was 2800 mg/kg. Take `CCOP(=S)(OCC)Oc1cc(C)n(C)c(=O)c1`: the 50% lethal dose (LD50) was 5.97 mg/kg. On to `CN(C)c1ccncc1`, for which the LD50 was 250 mg/kg.

As for `NC(=S)Nc1ccc(Cl)cc1`, the LD50 is 15 mg/kg. For the compound `O=C(CCl)c1ccc(Cl)cc1Cl`, the LD50 is 300 mg/kg. For the compound `N#CCCC1(CCC#N)c2ccccc2-c2ccccc21`, the LD50 was 2180 mg/kg.

For `NC(Cc1ccc(Oc2ccc(N(CCCl)CCCl)cc2)cc1)C(=O)O` (stereo unspecified), the LD50 is 620 mg/kg.

Consider `C[C@H](CCC(=O)O)[C@H]1CC[C@H]2[C@@H]3C(=O)C[C@@H]4CC(=O)CC[C@]4(C)[C@H]3CC(=O)[C@]12C`, for which the median lethal dose (LD50) is 3760 mg/kg and 4000 mg/kg. For the compound `CC1NCCOC1c1ccccc1` (stereo unspecified), the median lethal dose (LD50) is 370 mg/kg and 165 mg/kg. Turning to `FC(F)(F)c1nc2ccc(Br)cc2[nH]1`, the LD50 was 49 mg/kg.

For the compound `N#CCCN1CC=C(c2cccc(C(F)(F)F)c2)CC1`, the LD50 was 515 mg/kg.
